Reference: patent US10220033B2, “Substituted benzoxazepine for cancer therapy” (University of Cape Town, priority 2014, dated 2019)
Where two headings read alike, the source gives them in different places.

Experiments:
[1] = system: WHCO5 oesophageal cancer cell line; assay: MTT assay for cell viability, IC50 determination; assay type: cell-based, human; details: MTT
Protocol: (§1) Cells were plated in 96-well plates and treated with varying concentrations of a test compound for 48 hours, after which MTT dye, 3-(4,5-dimethylthiazol-2-yl)-2,5-diphenyltetrazolium bromide (Sigma), was added, and crystals solubilised 4 hours later using Solubilisation Reagent (10% SLS in 0.01 M HCl). Absorbencies were measured at 595 nm the following day using a BioTek microplate spectrophotometer (Winooski, Vt., USA) and IC50 curves were generated using GraphPad Prism.

[2] = system: AP-1 transcriptional activity in CaSki cells; assay: AP-1 luciferase reporter assay; assay type: cell-based; details: 10 or 15 μM, 24 hours (FIG. 15)
Protocol: To assay for AP-1 and p65 luciferase activities, 40 000 CaSki cells were plated in 24-well plates, and transfected with 50 ng of an API luciferase reporter (containing four copies of the AP-1 binding site) or 50 ng of a p65 luciferase reporter (containing five copies of the p65 binding site, Clontech, CA, USA) and 5 ng pRL-TK (encoding Renilla luciferase, Promega), using 0.16 μl TransFectin™ lipid reagent (Bio-Rad, Hercules, Calif., USA). The following day cells were treated with 10 or 15 μM Compound A. Luciferase activity was measured 24 hours after Compound A treatment using the Dual-LuciferaseR Reporter assay system (Promega, Madison, Wis., USA), according to the manufacturers' instructions. Luciferase readings were measured using the Veritas™ microplate luminometer (Promega) and luciferase readings were normalised to Renilla luciferase in the same extract.

HeLa and KYSE30 cells = assay: Anchorage-independent colony formation; assay type: cell-based; details: 10 μM; polyheme-coated plates, 9 days (FIG. 23)
Protocol: The anchorage-independent proliferation of cancer cells was measured in response to Compound A treatment, as cells grown in this manner are more representative of tumour cells in vivo. Cells were grown on polyheme-coated plates and cell proliferation monitored 9 days after treatment, using MTT assays.

[3] = system: p65 nuclear import (Kpnβ1 cargo protein); assay: Percentage of nuclear and cytoplasmic p65 (FIG. 4); assay type: cell-based
cancer cell lines = assay: MTT cell viability, summary statements over panels of cancer cell lines; assay type: cell-based; details: cervical, oesophageal, ovarian and breast cancer cell lines (Table 11); read-out: IC50
Protocol: as §1

[4] = system: KYSE150 oesophageal cancer cell line; assay: MTT assay for cell viability, IC50 determination; assay type: cell-based; details: Homo sapiens, KYSE-150; KYSE150; 48 hours, MTT
Protocol: as §1

[5] = system: CP70 ovarian cancer cell line; assay: MTT assay for cell viability, IC50 determination; assay type: cell-based; details: 48 hours
Protocol: as §1

[6] = system: WHCO6 oesophageal carcinoma cell line; assay: MTT assay for cell viability, IC50 determination; assay type: cell-based; details: Homo sapiens, 48 hours
Protocol: as §1

[7] = system: A2780 ovarian cancer cell line; assay: MTT assay for cell viability, IC50 determination; assay type: cell-based; details: Homo sapiens, 48 hours
Protocol: as §1

[8] = system: KYSE180 oesophageal cancer cell line; assay: MTT assay for cell viability, IC50 determination; assay type: cell-based; details: Homo sapiens, KYSE-180, 48 hours
Protocol: as §1

[9] = system: FG0 normal skin fibroblasts (non-cancer); assay: MTT assay for cell viability, IC50 determination; assay type: cell-based; details: Skin fibroblast, 48 hours
Protocol: as §1

[10] = system: MDA-MB-231 breast cancer cell line; assay: MTT assay for cell viability, IC50 determination; assay type: cell-based; details: Homo sapiens, 48 hours, MTT
Protocol: as §1

[11] = MTT assay for cell viability, IC50 determination; assay type: cell-based; details: Homo sapiens, MCF-12A; MCF12A; 48 hours, MTT
Protocol: as §1

[12] = system: OVCAR3 ovarian cancer cell line; assay: MTT assay for cell viability, IC50 determination; assay type: cell-based; details: Homo sapiens, OVCAR-3, 48 hours
Protocol: as §1

[13] = system: DMB normal skin fibroblasts (non-cancer); assay: MTT assay for cell viability, IC50 determination; assay type: cell-based; details: Skin fibroblast; DMB non-cancer; 48 hours, MTT
Protocol: as §1

[14] = system: HeLa cervical cancer cell line; assay: MTT assay for cell viability, IC50 determination; assay type: cell-based; details: HeLa, 48 hours, MTT, read-out: IC50
Protocol: as §1

[15] = system: KYSE30 oesophageal cancer cell line; assay: MTT assay for cell viability, IC50 determination; assay type: cell-based; details: Homo sapiens, KYSE-30, 48 hours
Protocol: as §1

[16] = system: MCF7 breast cancer cell line; assay: MTT assay for cell viability, IC50 determination; assay type: cell-based; details: Homo sapiens, 48 hours, MTT
Protocol: as §1

[17] = system: CaSki cervical cancer cell line; assay: MTT assay for cell viability, IC50 determination; assay type: cell-based; details: MTT, read-out: IC50
Protocol: as §1

[18] = system: WI38 non-cancer cell line; assay: MTT assay for cell viability, IC50 determination; assay type: cell-based; details: Homo sapiens, WI-38; WI38 non-cancer; 48 hours, MTT
Protocol: as §1

[19] = system: WHCO1 oesophageal carcinoma cell line; assay: MTT assay for cell viability, IC50 determination; assay type: cell-based; details: Homo sapiens, 48 hours
Protocol: as §1

[20] = system: SVWI38 transformed cell line; assay: MTT assay for cell viability, IC50 determination; assay type: cell-based; details: SVWI38 transformed; 48 hours, MTT
Protocol: as §1

[21] = system: NFY nuclear localisation in CaSki cells; assay: Nuclear and cytoplasmic protein extraction, Western Blot; assay type: cell-based; details: IC50 concentration, 48 hours (FIGS. 11, 12)
Protocol: (§2) Nuclear and cytoplasmic protein fractionation was performed using the NE-PER Nuclear Protein Extraction Kit (ThermoScientific, Rockford, Ill., USA), according to the manufacturer's instructions. […] Western Blot analysis was performed using a goat anti-Karyopherin α2 (C-20) antibody (sc-6917, Santa Cruz Biotechnology), and a rabbit anti-NFYA (H-209) antibody (sc-10779, Santa Cruz Biotechnology). An anti-β-tubulin (H-235) antibody (sc-9104, Santa Cruz Biotechnology) was used to control for cytoplasmic protein loading and a rabbit anti-TATA-box binding protein (TBP) (N-12) and antibody (sc-204, Santa Cruz Biotechnology) to control for nuclear protein loading. Densitometry was performed using Image J.

[22] = system: endogenous Kpnα2 nuclear localisation in CaSki cells; assay: as above; assay type: cell-based; details: IC50 concentration, 48 hours (FIGS. 11, 12)
Protocol: as §2

[23] = Body mass of tumour-bearing mice during treatment; assay type: in vivo; details: WHCO6 tumour-bearing mice; 50 mg/kg i.p. over the course of the treatment (FIG. 29)
Protocol: WHCO6 cells were harvested and resuspended in PBS. For tumour inoculation, cancer cells (5×10^6 per mouse) were s.c. implanted into the hind flanks of female nude mice. Once tumours had reached a palpable size, drug treatment was initiated, where tumour-bearing mice were randomized and dosed i.p. with either vehicle (DMSO) or Compound A (50 mg/kg), every 2-3 days for 3 weeks. Tumour volumes were measured twice a week, using calipers, and tumour volume estimated using the following formula: volume=(length×width×width)/2. Mice were sacrificed 3 weeks after the commencement of drug treatment.

For CN(C)CCCn1c(N)c(-c2nc3ccccc3[nH]2)c2nc3ccccc3nc21 [Compound A, 3-(1H-benzimidazol-2-yl)-1-(3-dimethylaminopropyl)pyrrolo[5,4-b]quinoxalin-2-amine], the IC50 ([1]; 48 hours) was 9.09 µM, the IC50 ([1]; Homo sapiens, 48 h) was 9.09 µM and the AP-1 luciferase activity [2] was “decreased in a dose-dependent manner”. The anchorage-independent colony formation (HeLa and KYSE30 cells) was “unable to form colonies”, the “nuclear import of Kpnβ1 cargo protein (percentage of nuclear p65 relative to cytoplasmic p65)” value [3] was “inhibit the nuclear import of Kpnβ1 cargo protein” and the IC50 (cancer cell lines) was ~10 µM. The IC50 [4] was 11.7 µM, the IC50 [5] was 7.7 µM and the IC50 [6] was 12 µM. It also gave an IC50 [7] of 5.79 µM, an IC50 [8] of 15.8 µM and an IC50 [9] of 21.4 µM. It also gave an IC50 [10] of 7.92 µM, an IC50 [11] of 12.7 µM and an IC50 [12] of 10.5 µM. It also gave an IC50 [13] of 31.4 µM, an IC50 [14] of 8.77 µM and an IC50 ([14]; Homo sapiens, 48 h) of 10.2 µM. The IC50 [15] was 8.84 µM, the IC50 [16] was 9.33 µM and the IC50 ([17]; 48 hours) was 9.33 µM. The IC50 ([17]; Homo sapiens, Ca-Ski, 48 h) was 9.33 µM, the IC50 [18] was 24 µM and the IC50 [19] was 10.6 µM. For the same compound, the IC50 [20] was 10.4 µM, the “NFY in the nuclear fraction” value [21] was “decrease” and the “amount of Kpnα2 in the nucleus” value [22] was “decrease”. For the same compound, the “body mass of the mice” value [23] was “did not change”.
